# Measured values published in patent US9296687B2, “Modulators of HSP70/DnaK function and methods of use thereof” (The Trustees of the University of Pennsylvania, priority 2008, dated 2016).
# Key:
# HSP70 [1] = biological target: T1, HSP70 (Homo sapiens, UniProt P0DMV8); assay: Immunoprecipitation-western blot of HSP70 complexes with co-chaperones and substrate proteins; format: cell-based; parameters: endogenous in cells; host or cells: human tumor cell lines (A875, BX-U2OS, U2OS, H1299, MiaPaCa2, HepG2, SKBR3, 293T)
# FADU cells = assay: Sulforhodamine B colorimetric assay, PES plus cisplatin; format: cell-based, human; details: 0-100 μM, 1:1 ratio, 72 h
# Procedure: FIG. 20. PES and cisplatin act synergistically to kill cancer cells. […] Experiments were done in triplicate per condition.
# Cells (2×10^4) were plated into 96 well plates in 200 μl media and allowed to attach overnight. Cells were then treated with the indicated doses of PES, cisplatin or PES+Cisplatin. After 72 hr incubation period, cells were washed in PBS and 100 μl of ice cold 10% TCA was added for 1 hr at 4° C. Plates were washed four times with slow-running tap water and air-dried at room temperature. 100 μl of 0.057% SRB solution was added to the cells and incubated for 30 min at room temperature. Fixed cells were quickly rinsed four times with 1% acetic acid to remove unbound dye. The protein-bound dye was solubilized using 200 μl of 10 mM Tris base solution (pH 10.5) per well, and the wells were spectrophotometrically quantified at an absorbance of 540 nm. This methodology is identical to that in Shekan et al, JNCI 82:1107 (1990).
# HSP70 [2] = biological target: T1, HSP70; assay: Competition of untagged PES with B-PES for HSP70; format: binding; parameters: endogenous in cells; host or cells: human tumor cell lines (A875, BX-U2OS, U2OS, H1299, MiaPaCa2, HepG2, SKBR3, 293T)
# Procedure: FIG. 15. Evidence supporting HSP70 as the cellular target of PES. (A) Competition studies in vivo support HSP70 as a PES target. H1299 cells were either pre-treated with DMSO or excess (25×) untagged PES for 1 h prior to the addition of 20 μM Biotin-PES (B-PES) for 5 h, and examined for the expression of proteins indicated (left). B-PES-containing complexes were captured by NeutrAvidin Resins, and immunoblotted using the indicated antibodies. […] (B) Competition studies in vitro support HSP70 as a PES target. Purified HSP70 protein was incubated with 0.25 mM B-PES in the absence and in the presence of 0.125 mM untagged PES.
# DnaK = DnaK (Escherichia coli, UniProt P0A6Y8); assay: Identification of B-PES interacting protein in bacteria by LC-tandem MS; details: E. coli DH5α, 50 μM B-PES, 3 h
# Eμ-Myc transgenic mice = assay: Eμ-Myc mouse model of lymphomagenesis; format: in vivo
# Procedure: To evaluate the efficacy of PES as a chemopreventative agent, Eμ-Myc transgenic mice were injected every 5 days, starting at 8 weeks of age, with either vehicle or PES (40 mg/kg) prepared in PBS. All animals received a total of 7 injections, either with PES or vehicle. Consequently, no injection was given after day 86. All mice were observed daily for signs of morbidity and the development of lymphoma. All experiments with mice were approved by, and conformed to, the guidelines of the Institutional Animal Care and Use Committee of the Fox Chase Cancer Center. These mice may also be used to advantage to test the beneficial therapeutic combinations of agents and/or treatments described herein.
# Beginning at 6 weeks of age, Eμ-myc transgenic mice were treated either with vehicle, 20 mg/kg PES or 20 mg/kg PES-Cl with weekly i.p. injections of tested compound (FIG. 27).
# [3] = system: MCF7 human breast carcinoma cells; assay: MTT assay, PES followed by 17-AAG; format: cell-based; details: 5 μM PES 1 h, then 17-AAG 47 h
# Procedure: FIG. 17. PES impairs the proteasome system. (A) Cell-based 20S proteasome activity assay of H1299 or A875 human tumor cells treated with DMSO, 20 μM PES, 100 nM Velcade (proteasome inhibitor), 1 μM 17-AAG (HSP90 inhibitor), 5 μM CQ (lysosome inhibitor), or 20S proteasome inhibitor epigallocatechin gallate (EGCG). Each graphical representation indicates the mean±SD of at least three independent cultures relative to control (DMSO-treated) cells. (B) Cell extracts from SKBR3 human breast carcinoma cells, treated either with 20 μM PES or 1 μM 17-AAG for 24 h, were immunoprecipitated (IP) using anti-HSP70 or anti-HSP90 antibody. […] MTT assays of MCF7 human breast carcinoma cells pretreated with DMSO, or 5 μM PES for 1 h, followed by the addition of indicated amount of 17-AAG for 47 h. The results represent the mean±SD of at least three independent analysis of cultures relative to control (DMSO-treated) cells. […]
# Cell viability assays were performed using an MTT (methyl thiazolyl tetrazolium) colorimetric assay (Roche Applied Science, Cat. No. 11 465 007 001), with the following modifications. […] The metabolized insoluble formazan crystals were then solubilized using 0.5 ml of the Solubilization solution (10% SDS in 0.01M HCl) per well, and the resulting colored solutions were spectrophotometrically quantified at an absorbance of 570 nm.
# p62/SQSTM1, LC3 = assay: Autophagy markers in cultured cells (vacuoles, LC3-II, p62/SQSTM1, electron microscopy); format: cell-based, human
# T1 sequence (P0DMV8 whole entry): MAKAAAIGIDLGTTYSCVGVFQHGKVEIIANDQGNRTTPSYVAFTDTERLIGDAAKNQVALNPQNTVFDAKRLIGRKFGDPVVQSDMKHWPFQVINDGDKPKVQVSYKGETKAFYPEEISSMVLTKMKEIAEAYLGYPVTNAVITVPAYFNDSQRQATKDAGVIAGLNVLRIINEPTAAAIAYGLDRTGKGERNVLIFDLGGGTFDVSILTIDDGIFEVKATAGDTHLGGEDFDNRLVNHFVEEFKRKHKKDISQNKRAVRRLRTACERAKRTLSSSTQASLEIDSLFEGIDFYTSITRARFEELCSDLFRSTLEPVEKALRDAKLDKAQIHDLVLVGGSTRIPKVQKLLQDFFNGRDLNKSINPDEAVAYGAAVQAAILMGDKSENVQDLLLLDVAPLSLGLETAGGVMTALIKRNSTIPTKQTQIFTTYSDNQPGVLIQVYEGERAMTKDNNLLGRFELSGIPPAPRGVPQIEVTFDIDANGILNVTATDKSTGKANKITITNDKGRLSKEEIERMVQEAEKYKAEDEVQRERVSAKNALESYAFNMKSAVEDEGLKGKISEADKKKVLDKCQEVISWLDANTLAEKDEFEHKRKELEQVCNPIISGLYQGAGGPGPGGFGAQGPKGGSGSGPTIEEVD
# Sequence of DnaK (P0A6Y8 whole entry): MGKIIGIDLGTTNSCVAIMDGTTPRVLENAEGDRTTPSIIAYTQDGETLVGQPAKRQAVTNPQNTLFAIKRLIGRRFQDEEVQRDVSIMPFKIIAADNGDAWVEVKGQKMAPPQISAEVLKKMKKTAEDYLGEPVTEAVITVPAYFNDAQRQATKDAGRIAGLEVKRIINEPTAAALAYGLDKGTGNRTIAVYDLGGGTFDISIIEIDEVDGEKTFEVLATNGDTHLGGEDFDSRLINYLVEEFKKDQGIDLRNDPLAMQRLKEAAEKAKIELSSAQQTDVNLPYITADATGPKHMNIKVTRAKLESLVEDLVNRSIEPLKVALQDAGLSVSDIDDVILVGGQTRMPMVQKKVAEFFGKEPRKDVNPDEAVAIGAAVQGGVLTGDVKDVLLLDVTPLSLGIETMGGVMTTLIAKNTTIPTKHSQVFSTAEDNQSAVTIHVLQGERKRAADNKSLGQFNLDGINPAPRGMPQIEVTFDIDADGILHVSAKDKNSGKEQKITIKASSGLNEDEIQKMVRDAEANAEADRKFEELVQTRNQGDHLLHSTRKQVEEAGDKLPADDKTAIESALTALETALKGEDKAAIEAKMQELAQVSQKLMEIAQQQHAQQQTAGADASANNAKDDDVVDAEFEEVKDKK
smiles,measurement,setting,value
"NS(=O)(=O)C#Cc1ccccc1 [PES, 2-Phenylethynesulfonamide]",abundance of HSP70/BAG-1S complex,HSP70 [1],no detectable change
same,abundance of HSP70/HSP90 complexes,HSP70 [1],no change in the abundance of HSP70/HSP90 complexes
same,"HSP70 in association with CHIP, HSP40 and APAF1","HSP70 [1]; 20 μM, 24 h","less HSP70 in association with CHIP, HSP40 and APAF1"
same,HSP70 interaction with viral T antigen,"HSP70 [1]; 293 cells with SV40 T antigen, 20 μM",interfered with HSP70 and viral T antigen interactions
same,LAMP2 in a complex with HSP70,"HSP70 [1]; A875, MiaPaCa2, 20 μM, 24 h",significantly reduced the amount of LAMP2 in a complex with HSP70
same,complexes containing p53 and BAK or HSP70,"HSP70 [1]; A875 and HepG2 cells, PES 20 μM, with or without cisplatin 50 μM",not observed
same,interaction between HSP70 and BAG-1M,"HSP70 [1]; H1299, U2OS",clear decrease
same,HSP70 interaction with integrin α5 and integrin β1,HSP70 [1]; H1299 cells,reduced HSP70 and integrin α5 and integin β1 interactions
same,interaction between monomeric p62/SQSTM1 and HSP70,"HSP70 [1]; MiaPaCa2, A875",attenuated the interaction
same,combination effect with cisplatin,FADU cells,acts synergistically with cisplatin
same,binding of HSP70 to B-PES matrix with competitor,"HSP70 [2]; H1299 cells, excess (25×) untagged PES 1 h, then 20 μM B-PES 5 h",Binding of HSP70 to the matrix is reduced
same,B-PES/HSP70 complex formation,"HSP70 [2]; purified HSP70, 0.25 mM B-PES, 0.125 mM untagged PES",reduces B-PES/HSP70 complex formation
same,interaction with DnaK,DnaK,interacts with DnaK
same,tumor development,Eμ-Myc transgenic mice; 40 mg/kg i.p. once every five days for 30 days,markedly impaired tumor development
same,overall mean survival time,Eμ-Myc transgenic mice; 40 mg/kg intra-peritoneally every 5 days for 30 days,> 140 days
same,cell killing by 17-AAG,[3],sensitizes cells to cell killing by 17-AAG
same,LC3-II level,"p62/SQSTM1, LC3; 20 μM",higher levels of LC3-II
same,autophagosomes and autophagolysosomes by electron microscopy,"p62/SQSTM1, LC3; 20 μM, 7 or 24 h",rapid and substantial increase in multiple double-membrane autophagosomes and single-membrane autophagolysosomes
same,intracytoplasmic vacuoles,"p62/SQSTM1, LC3; 24 h",progressive accumulation of intracytoplasmic vacuoles
same,p62/SQSTM1 oligomers in soluble and detergent-insoluble fractions,"p62/SQSTM1, LC3; 24 h, PES 20 μM, Velcade 100 nM, CQ 50 μM, 17-AAG 15 nM",higher molecular weight forms of p62/SQSTM1 in both the soluble and detergent-insoluble fractions
same,p62/SQSTM1 accumulation and oligomerization,"p62/SQSTM1, LC3; H1299 cells, increasing concentrations, 24 h",notable increase in p62/SQSTM1 accumulation and oligomerization
same,p62 oligomerization and LC3-II accumulation,"p62/SQSTM1, LC3; IMR90 cells, 24 h",only a modest degree of p62 oligomerization and LC3-II accumulation
same,interaction between LC3 and p62/SQSTM1,"p62/SQSTM1, LC3; IP-WB, MiaPaCa2, A875",enhanced the interaction
same,accumulation and oligomerization of p62/SQSTM1,"p62/SQSTM1, LC3; western blot",promotes an accumulation and oligomerization of p62/SQSTM1 in a time- and dose-dependent manner
